Source: US20260184687A1, “DIHYDROINDENE DERIVATIVES AS MALT1 INHIBITORS” (C4X Discovery Limited, priority 2022, published 2026)

Experiments:
[1] = target: MALT1-GS-Ub (6-His-hMALT-1 residues 339-715 fused to ubiquitin) (Homo sapiens, UniProt Q9UDY8); experiment: biochemical;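 note: in vitro MALT1 protease assay: enzyme preincubated with compound 30 min at room temperature, then cleavage of fluorogenic Ac-LVSR-AMC substrate (100 µM) followed by fluorescence every 15 min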
Method: MALT1 protease activity was assessed in vitro by measuring the cleavage of a fluorogenic tetrapeptide substrate.
A protein (MALT1-GS-Ub) comprising 6-His-hMALT-1 (residues 339-715), fused to ubiquitin with an 8×GGS linker, was expressed in E. coli, and purified using chitin resin to remove contaminants followed by affinity chromatography purification and size-exclusion chromatography, according to standard protocols.
Briefly, MALT1-GS-Ub (300-600 nM) was incubated with substrate (Ac-LVSR-AMC, 100 μM) in reaction buffer comprising 50 mM HEPES (pH7.0), 25 mM KCl, 0.1% (v/v) CHAPS and 1 mM TCEP.
Test compounds dissolved in DMSO were dispensed into assay plates (384-well, black, shallow ProxiPlates). 7 μl enzyme solution was added and incubated at room temperature for 30 minutes to allow compound binding to occur. 2 μl substrate solution was then added and the fluorescence (excitation 360 nm, emission 460 nm) read every 15 minutes using a suitable plate reader. Final assay DMSO concentration was 1%. […] IC50 values were calculated using GraphPad Prism using a 4-parameter non-linear regression curve fit.

[2] = target: T1, FL hMALT1 enzyme (Homo sapiens, UniProt Q9UDY8); experiment: biochemical;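 note: Cell-free protease assay: enzyme preincubated with compound 30 min at room temperature, then cleavage of fluorogenic Ac-LVSR-AMC substrate (100 µM) tracked by fluorescence (ex 360/em 460 nm)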
T1 sequence (Q9UDY8 1-824): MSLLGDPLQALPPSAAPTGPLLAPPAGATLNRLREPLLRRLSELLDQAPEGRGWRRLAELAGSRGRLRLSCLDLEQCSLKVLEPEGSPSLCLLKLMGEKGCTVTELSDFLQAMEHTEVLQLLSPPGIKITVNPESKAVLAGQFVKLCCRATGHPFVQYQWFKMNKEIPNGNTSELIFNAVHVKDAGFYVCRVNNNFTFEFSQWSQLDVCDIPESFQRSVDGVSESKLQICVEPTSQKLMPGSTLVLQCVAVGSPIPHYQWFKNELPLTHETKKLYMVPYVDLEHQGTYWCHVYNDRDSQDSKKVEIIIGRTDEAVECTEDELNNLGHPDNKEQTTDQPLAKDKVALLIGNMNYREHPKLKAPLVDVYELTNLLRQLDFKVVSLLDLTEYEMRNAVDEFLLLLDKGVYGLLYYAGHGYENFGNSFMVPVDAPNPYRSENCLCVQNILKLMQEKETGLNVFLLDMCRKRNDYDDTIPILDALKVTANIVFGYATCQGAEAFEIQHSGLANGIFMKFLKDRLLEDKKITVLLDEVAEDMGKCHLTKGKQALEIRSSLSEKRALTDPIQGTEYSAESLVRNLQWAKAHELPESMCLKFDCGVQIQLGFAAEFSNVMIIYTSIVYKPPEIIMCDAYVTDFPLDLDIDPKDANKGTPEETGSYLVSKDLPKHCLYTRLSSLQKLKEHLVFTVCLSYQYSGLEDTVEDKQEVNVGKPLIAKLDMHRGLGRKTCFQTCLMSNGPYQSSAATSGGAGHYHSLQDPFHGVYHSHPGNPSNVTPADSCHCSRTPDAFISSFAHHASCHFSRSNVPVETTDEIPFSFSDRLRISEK

[3] = system: IL-2 release from stimulated Jurkat cells; experiment: Human IL-2 Release Phenotypic Assay (Assay 3); assay type: cell-based; settings: Jurkat cells (clone E6-1), 200 ng/mL PMA + 300 ng/mL ionomycin, IL-2 by ELISA
Method in brief: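 IC50 values were fitted by 4-parameter non-linear regression to IL-2 release from Jurkat E6-1 cells. Those cells were stimulated for 48 h with PMA (200 ng/mL) plus ionomycin (300 ng/mL) after a 30-min compound pre-incubation at half-log doses in 0.5% DMSO. Cells had been plated at 50 000/well overnight at 37° C.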

Chain of MALT1-GS-Ub (6-His-hMALT-1 residues 339-715 fused to ubiquitin) (Q9UDY8 with tags, fused parts or gaps limits assumed): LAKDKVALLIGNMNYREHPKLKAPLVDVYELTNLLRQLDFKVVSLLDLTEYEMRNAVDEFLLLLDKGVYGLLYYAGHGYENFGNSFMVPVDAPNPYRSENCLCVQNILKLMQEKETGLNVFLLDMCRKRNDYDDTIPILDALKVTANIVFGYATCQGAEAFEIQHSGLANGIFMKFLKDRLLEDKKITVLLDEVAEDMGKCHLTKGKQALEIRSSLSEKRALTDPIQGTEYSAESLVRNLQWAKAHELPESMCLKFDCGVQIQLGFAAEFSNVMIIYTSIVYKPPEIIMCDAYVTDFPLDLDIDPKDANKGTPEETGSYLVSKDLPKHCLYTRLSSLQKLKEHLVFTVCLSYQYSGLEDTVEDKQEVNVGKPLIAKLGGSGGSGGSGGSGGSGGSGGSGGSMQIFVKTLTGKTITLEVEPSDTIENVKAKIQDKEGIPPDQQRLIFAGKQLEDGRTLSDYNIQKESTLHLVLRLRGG

Row | SMILES | IC50 [1] [µM] | IC50 [2] [µM] | IC50 ([3]; 48 hours) [µM] | IC50 ([3]; Homo sapiens, Jurkat, 48 h) [µM]
1 | CN(C(=O)C1CNC1)C(c1ccc(NC2Cc3ccccc3C2(C)C)cn1)C(F)(F)F (single isomer, unassigned) [Example 83, N-(1-(5-((1,1-Dimethyl-2,3-dihydro-1H-inden-2-yl)amino)pyridin-2-yl)-2,2,2-trifluoroethyl)-N-methylazetidine-3-carboxamide] | 16 | > 3 | – | –
2 | CN(C(=O)c1cc[nH]c(=O)c1)C(c1ccc(NC2Cc3ccccc3C2(C)C)cn1)C(F)(F)F (single isomer, unassigned) [Example 99, N-(1-(5-((1,1-Dimethyl-2,3-dihydro-1H-inden-2-yl)amino)pyridin-2-yl)-2,2,2-trifluoroethyl)-N-methyl-2-oxo-1,2-dihydropyridine-4-carboxamide] | 26 | > 3 | – | –
3 | CN(C(=O)c1cnon1)[C@@H](c1ccc(NC2Cc3ccccc3C2(C)C)cc1)C(F)(F)F (single isomer, unassigned) [Example 51] | 0.93 | – | – | –
4 | CN1CC(C(=O)N(C)C(c2ccc(NC3Cc4ccccc4C3(C)C)cn2)C(F)(F)F)C1 (single isomer, unassigned) [Example 91, N-(1-(5-((1,1-Dimethyl-2,3-dihydro-1H-inden-2-yl)amino)pyridin-2-yl)-2,2,2-trifluoroethyl)-N,1-dimethylazetidine-3-carboxamide] | 12 | > 3 | – | –
5 | CNS(=O)(=O)CCC(=O)N(C)[C@@H](c1ccc(NC2Cc3ccccc3C2(C)C)cc1)C(F)(F)F (single isomer, unassigned) [Example 62] | 0.17 | – | 2.12 | –
6 | CN(C(=O)C1CNC1)C(c1ccc(NC2Cc3ccccc3C2(C)C)cn1)C(F)(F)F (single isomer, unassigned) [Example 86, N-(1-(5-((1,1-Dimethyl-2,3-dihydro-1H-inden-2-yl)amino)pyridin-2-yl)-2,2,2-trifluoroethyl)-N-methylazetidine-3-carboxamide] | 11 | > 3 | – | –
7 | CNS(=O)(=O)CCC(=O)N(C)[C@@H](c1ccc(NC2Cc3ccccc3C2(C)C)cc1)C(F)(F)F (single isomer, unassigned) [Example 61] | 0.18 | – | 0.84 | –
8 | CN(C(=O)c1cc[nH]c(=O)c1)C(c1ccc(NC2Cc3ccccc3C2(C)C)cn1)C(F)(F)F (single isomer, unassigned) [Example 97, N-(1-(5-((1,1-Dimethyl-2,3-dihydro-1H-inden-2-yl)amino)pyridin-2-yl)-2,2,2-trifluoroethyl)-N-methyl-2-oxo-1,2-dihydropyridine-4-carboxamide] | 16 | > 3 | – | –
9 | CN(C(=O)C1CNC1)C(c1ccc(NC2Cc3ccccc3C2(C)C)nc1)C(F)(F)F (single isomer, unassigned) [Example 89, N-(1-(6-((1,1-Dimethyl-2,3-dihydro-1H-inden-2-yl)amino)pyridin-3-yl)-2,2,2-trifluoroethyl)-N-methylazetidine-3-carboxamide] | 6.86 | > 3 | – | –
10 | CN1CC(C(=O)N(C)C(c2ccc(NC3Cc4ccccc4C3(C)C)nc2)C(F)(F)F)C1 (single isomer, unassigned) [Example 94, N-(1-(6-((1,1-Dimethyl-2,3-dihydro-1H-inden-2-yl)amino)pyridin-3-yl)-2,2,2-trifluoroethyl)-N,1-dimethylazetidine-3-carboxamide] | 17 | > 3 | – | –
11 | CN(C(=O)C1CCS(=O)(=O)CC1)[C@@H](c1ccc(NC2Cc3ccc(Cl)c(F)c3C2)nc1)C(F)(F)F (single isomer, unassigned) [Example 332] | – | 0.014 | – | 0.047
12 | CN(C(=O)C1CCC(=O)NC1)[C@@H](c1ccc(NC2Cc3ccccc3C2(C)C)cn1)C(F)(F)F (single isomer, unassigned) [Example 107] | – | 0.045 | 0.41 | –
13 | CN(C(=O)[C@H]1C[C@H](N(C)C)C1)[C@@H](c1ccc(NC2Cc3ccccc3C2(C)C)cn1)C(F)(F)F (single isomer, unassigned) [Example 112] | – | 0.23 | – | 0.43
14 | CN1CC(C(=O)N(C)C(c2ccc(NC3Cc4ccccc4C3(C)C)cn2)C(F)(F)F)C1 (single isomer, unassigned) [Example 90, N-(1-(5-((1,1-Dimethyl-2,3-dihydro-1H-inden-2-yl)amino)pyridin-2-yl)-2,2,2-trifluoroethyl)-N,1-dimethylazetidine-3-carboxamide] | 81 | > 3 | – | –
15 | CN(C(=O)[C@H]1CCC(=O)NC1)[C@@H](c1ccc(NC2Cc3ccc(Cl)c(Cl)c3C2)cn1)C(F)(F)F (single isomer, unassigned) [Example 321] | – | 0.025 | – | 0.086
16 | CN(C(=O)C1CCCNC1)[C@@H](c1ccc(NC2Cc3ccccc3C2(C)C)cn1)C(F)(F)F (single isomer, unassigned) [Example 125] | – | 0.062 | 0.33 | –
17 | CN(C(=O)CC#N)[C@@H](c1ccc(NC2Cc3ccc(Cl)c(Cl)c3C2)cn1)C(F)(F)F (single isomer, unassigned) [Example 350] | – | 0.061 | – | 0.23
18 | CNC(=O)N1CC(C(=O)N(C)[C@@H](c2ccc(NC3Cc4ccccc4C3(C)C)cn2)C(F)(F)F)C1 (single isomer, unassigned) [Example 228] | – | 0.057 | 1 | –
19 | CN(C(=O)C1CNC(=O)CO1)[C@@H](c1ccc(NC2Cc3ccccc3C2(C)C)cn1)C(F)(F)F (single isomer, unassigned) [Example 137] | – | 0.15 | 1.25 | –
20 | CN(C(=O)C1CCS(=O)(=O)CC1)[C@@H](c1ccc(NC2Cc3ccc(Cl)c(Cl)c3C2)cn1)C(F)(F)F (single isomer, unassigned) [Example 279] | – | 0.015 | – | 0.096
21 | CN(C(=O)C1CC2(CCC(=O)N2)C1)[C@@H](c1ccc(NC2Cc3ccccc3C2(C)C)cn1)C(F)(F)F (single isomer, unassigned) [Example 230] | – | 0.038 | – | 0.34
22 | CN(C(=O)OC1CN(C(=O)OC(C)(C)C)C1)[C@@H](c1ccc(NC2Cc3ccccc3C2(C)C)cc1)C(F)(F)F (stereo partly drawn) [Example 59, tert-Butyl 3-((((1S)-1-(4-((1,1-dimethyl-2,3-dihydro-1H-inden-2-yl)amino)phenyl)-2,2,2-trifluoroethyl)(methyl)carbamoyl)oxy)azetidine-1-carboxylate] | 2.71 | – | – | –
23 | CN(C(=O)[C@H]1C[C@H](N(C)C)C1)[C@@H](c1ccc(NC2Cc3ccccc3C2(C)C)nc1)C(F)(F)F (single isomer, unassigned) [Example 115] | – | 0.24 | 0.51 | –
24 | CN1CCC(C(=O)N(C)[C@@H](c2ccc(N[C@H]3Cc4ccccc4C3(C)C)cn2)C(F)(F)F)CC1=O (single isomer, unassigned) [Example 251] | – | 0.032 | 0.32 | –
25 | CN(C(=O)C1CCC(=O)NC1)[C@@H](c1ccc(NC2Cc3ccccc3C2(C)C)cn1)C(F)(F)F (single isomer, unassigned) [Example 105] | – | 0.036 | 0.23 | –
26 | CNC(=O)C12CC(C(=O)N(C)[C@@H](c3ccc(N[C@H]4Cc5ccccc5C4(C)C)cn3)C(F)(F)F)(C1)C2 [Example 185, N^1—((S)-1-(5-(((S)-1,1-Dimethyl-2,3-dihydro-1H-inden-2-yl)amino)pyridin-2-yl)-2,2,2-trifluoroethyl)-N^1,N^3-dimethylbicyclo[1.1.1]pentane-1,3-dicarboxamide] | – | 0.042 | – | 0.3
27 | CC(=O)N[C@H]1CC[C@@H](C(=O)N(C)[C@@H](c2ccc(N[C@H]3Cc4ccccc4C3(C)C)cn2)C(F)(F)F)C1 [Example 172, (1R,3S)-3-Acetamido-N—((S)-1-(5-(((S)-1,1-dimethyl-2,3-dihydro-1H-inden-2-yl)amino)pyridin-2-yl)-2,2,2-trifluoroethyl)-N-methylcyclopentane-1-carboxamide] | – | 0.071 | – | 0.49
28 | CN(C(=O)C1CC2(CCC(=O)N2)C1)[C@@H](c1ccc(NC2Cc3ccccc3C2(C)C)cn1)C(F)(F)F (single isomer, unassigned) [Example 232] | – | 0.03 | 0.18 | –
29 | CN(C(=O)C1CCC(=O)NC1)[C@@H](c1ccc(NC2Cc3ccccc3C2(C)C)cn1)C(F)(F)F (single isomer, unassigned) [Example 104] | – | 0.14 | 2.7 | –
